According to patent publication US20260062412A1, “NITROGEN-CONTAINING HETEROCYCLIC COMPOUND HAVING MYT1 INHIBITORY ACTIVITY” (CHUGAI SEIYAKU KABUSHIKI KAISHA, priority 2023, published 2026):
Structures can show the parent of a compound that is named as a salt.

These molecules were tested against MYT1 protein (Homo sapiens (Human), UniProt Q99640) (assay: Test for binding to ATP binding site of MYT1 (Kinase Tracer 178 / Eu-Anti-GST antibody TR-FRET)). Settings: ATP binding site of MYT1, 30 minutes at room temperature.
Sequence of MYT1 protein (Q99640 whole entry): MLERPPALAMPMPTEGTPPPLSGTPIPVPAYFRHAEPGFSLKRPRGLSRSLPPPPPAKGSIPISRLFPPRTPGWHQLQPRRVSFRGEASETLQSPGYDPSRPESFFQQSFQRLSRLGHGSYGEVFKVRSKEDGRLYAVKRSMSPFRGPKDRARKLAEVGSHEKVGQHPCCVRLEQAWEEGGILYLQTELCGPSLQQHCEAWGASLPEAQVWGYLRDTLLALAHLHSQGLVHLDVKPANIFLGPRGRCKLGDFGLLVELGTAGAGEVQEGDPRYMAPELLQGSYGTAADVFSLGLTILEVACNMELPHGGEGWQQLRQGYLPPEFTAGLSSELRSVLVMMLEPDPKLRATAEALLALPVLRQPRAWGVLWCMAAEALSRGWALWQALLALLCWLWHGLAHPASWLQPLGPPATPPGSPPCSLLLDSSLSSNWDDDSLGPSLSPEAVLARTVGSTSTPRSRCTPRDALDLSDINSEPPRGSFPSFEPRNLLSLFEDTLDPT

Row | Compound | IC50
1 | Nc1c(-c2ccc(F)c3[nH]ncc23)c2cc(Br)c3cnsc3c2[nH]c1=O [Compound H1, 7-Amino-4-bromo-6-(7-fluoro-1H-indazol-4-yl)-9H-[1,2]thiazolo[4,5-h]quinolin-8-one] | 6.2 nM
2 | Cc1cc2c(-c3ccc(F)c4[nH]ncc34)c(N)c(=O)[nH]c2c2sncc12 [Compound H2, 7-Amino-6-(7-fluoro-1H-indazol-4-yl)-4-methyl-9H-[1.2]thiazolo[4,5-h]quinolin-8-one] | 1.8 nM
3 | Cn1ncc2c(Br)cc3c(-c4ccc(F)c5[nH]ncc45)c(N)c(=O)[nH]c3c21 [Compound I1, 7-Amino-4-bromo-6-(7-fluoro-1H-indazol-4-yl)-1-methyl-9H-pyrazolo[4,3-h]quinolin-8-one] | 33 nM
4 | Cc1cc2c(-c3ccc(F)c4[nH]ncc34)c(N)c(=O)[nH]c2c2c1cnn2C [Compound I2, 7-Amino-6-(7-fluoro-1H-indazol-4-yl)-1,4-dimethyl-9H-pyrazolo[4,3-h]quinolin-8-one] | 16 nM
5 | Cn1ncc2c(C3CC3)cc3c(-c4ccc(F)c5[nH]ncc45)c(N)c(=O)[nH]c3c21 [Compound I3, 7-Amino-4-cyclopropyl-6-(7-fluoro-1H-indazol-4-yl)-1-methyl-9H-pyrazolo[4,3-h]quinolin-8-one] | 8 nM
6 | Nc1c(-c2ccc(F)c3[nH]ncc23)c2cc(C3CC3)c3cncnc3c2[nH]c1=O [Compound J3, 8-Amino-5-cyclopropyl-7-(7-fluoro-1H-indazol-4-yl)-10H-pyrido[3,2-h]quinazolin-9-one] | 3.5 nM
7 | Nc1c(-c2ccc(F)c3[nH]ncc23)c2cc(C3CC3)c3ncsc3c2[nH]c1=O [Compound K3, 7-Amino-4-cyclopropyl-6-(7-fluoro-1H-indazol-4-yl)-9H-[1,3]thiazolo[4,5-h]quinolin-8-one] | 50 nM
8 | Nc1c(-c2ccc(F)c3[nH]ncc23)c2cc(Br)c3ccsc3c2[nH]c1=O [Compound L1, 7-Amino-4-bromo-6-(7-fluoro-1H-indazol-4-yl)-9H-thieno[3,2-h]quinolin-8-one] | 3 nM
9 | Cc1cc2c(-c3ccc(F)c4[nH]ncc34)c(N)c(=O)[nH]c2c2sccc12 [Compound L2, 7-Amino-6-(7-fluoro-1H-indazol-4-yl)-4-methyl-9H-thieno[3,2-h]quinolin-8-one] | 1.8 nM
10 | Cn1cnc2c3[nH]c(=O)c(N)c(-c4ccc(F)c5[nH]ncc45)c3ccc21 [Compound M3, 7-Amino-6-(7-fluoro-1H-indazol-4-yl)-3-methyl-9H-imidazo[4,5-h]quinolin-8-one] | 99 nM
11 | Cc1nccc2c1c(Br)cc1c(-c3ccc(F)c4[nH]ncc34)c(N)c(=O)[nH]c12 [Compound P2, 3-Amino-6-bromo-4-(7-fluoro-1H-indazol-4-yl)-7-methyl-1H-1,8-phenanthrolin-2-one] | 13 nM
12 | Nc1c(-c2ccc(F)c3[nH]ncc23)c2cc(Br)c3cnccc3c2[nH]c1=O [Compound P3, 3-Amino-6-bromo-4-(7-fluoro-1H-indazol-4-yl)-1H-1,8-phenanthrolin-2-one] | 12 nM
13 | Nc1c(-c2cccc(O)c2)c2ccc3cnccc3c2[nH]c1=O [Compound P5, 3-Amino-4-(3-hydroxyphenyl)-1H-1,8-phenanthrolin-2-one; hydrobromide] | 3.9 nM
14 | Nc1c(-c2ccc(F)c3[nH]ncc23)c2cnc3ccccc3c2[nH]c1=O [Compound R1, 3-Amino-4-(7-fluoro-1H-indazol-4-yl)-1H-benzo[h][1,6]naphthyridin-2-one] | 3.4 nM
15 | Cc1cc2c(nn1)c(Br)cc1c(-c3ccc(F)c4[nH]ncc34)c(N)c(=O)[nH]c12 [Compound S1, 3-Amino-6-bromo-4-(7-fluoro-1H-indazol-4-yl)-9-methyl-1H-pyrido[2,3-f]cinnolin-2-one] | 370 nM
16 | COc1ccc2c(n1)c(OC)cc1c(-c3ccc(F)c4[nH]ncc34)c(N)c(=O)[nH]c12 [Compound T1, 3-Amino-4-(7-fluoro-1H-indazol-4-yl)-6,8-dimethoxy-1H-1,7-phenanthrolin-2-one] | 4.9 nM
17 | COc1ccc2c(n1)c(OC(C)C)cc1c(-c3ccc(F)c4[nH]ncc34)c(N)c(=O)[nH]c12 [Compound T2, 3-Amino-4-(7-fluoro-1H-indazol-4-yl)-8-methoxy-6-propan-2-yloxy-1H-1,7-phenanthrolin-2-one] | 7.6 nM
18 | COc1cc2c(-c3ccc(F)c4[nH]ncc34)c(N)c(=O)[nH]c2c2ccc(=O)[nH]c12 [Compound T4, 3-Amino-4-(7-fluoro-1H-indazol-4-yl)-6-methoxy-1,7-dihydro-1,7-phenanthroline-2,8-dione] | 3.2 nM
19 | CC(C)Oc1cc2c(-c3ccc(F)c4[nH]ncc34)c(N)c(=O)[nH]c2c2ccc(=O)[nH]c12 [Compound T5, 3-Amino-4-(7-fluoro-1H-indazol-4-yl)-6-propan-2-yloxy-1,7-dihydro-1,7-phenanthroline-2,8-dione] | 3.5 nM
20 | CCOc1cc2c(-c3ccc(F)c4[nH]ncc34)c(N)c(=O)[nH]c2c2ccc(=O)[nH]c12 [Compound T6, 3-Amino-6-ethoxy-4-(7-fluoro-1H-indazol-4-yl)-1,7-dihydro-1,7-phenanthroline-2,8-dione] | 2.2 nM

Next, values leading:

Row | IC50 | Compound
21 | 2.5 nM | CN1CCN(c2cc3c(-c4ccc(F)c5[nH]ncc45)c(N)c(=O)[nH]c3c3nccnc23)CC1 [Compound G7, 8-Amino-7-(7-fluoro-1H-indazol-4-yl)-5-(4-methylpiperazin-1-yl)-10H-pyrido[2,3-f]quinoxalin-9-one]
22 | 1.4 nM | CC(=O)Nc1cc2c(-c3ccc(F)c4[nH]ncc34)c(N)c(=O)[nH]c2c2nccnc12 [Compound G8, N-[8-amino-7-(7-fluoro-1H-indazol-4-yl)-9-oxo-10H-pyrido[2,3-f]quinoxalin-5-yl]acetamide]
23 | 4.4 nM | CC(C)Nc1cc2c(-c3ccc(F)c4[nH]ncc34)c(N)c(=O)[nH]c2c2nccnc12 [Compound G9, 8-Amino-7-(7-fluoro-1H-indazol-4-yl)-5-(propan-2-ylamino)-10H-pyrido[2,3-f]quinoxalin-9-one]
24 | 2.2 nM | COc1cc2c(-c3ccc(F)c4[nH]ncc34)c(N)c(=O)[nH]c2c2nccnc12 [Compound G10, 8-Amino-7-(7-fluoro-1H-indazol-4-yl)-5-methoxy-10H-pyrido[2,3-f]quinoxalin-9-one]
25 | 2.5 nM | Nc1c(-c2ccc(F)c3[nH]ncc23)c2cc(OCC3CC3)c3nccnc3c2[nH]c1=O [Compound G11, 8-Amino-5-(cyclopropylmethoxy)-7-(7-fluoro-1H-indazol-4-yl)-10H-pyrido[2,3-f]quinoxalin-9-one]
26 | 0.95 nM | N#C[C@H]1C[C@H](Oc2cc3c(-c4ccc(F)c5[nH]ncc45)c(N)c(=O)[nH]c3c3nccnc23)C1 [Compound G12, (1r,3r)-3-[[8-Amino-7-(7-fluoro-1H-indazol-4-yl)-9-oxo-10H-pyrido[2,3-f]quinoxalin-5-yl]oxy]cyclobutane-1-carbonitrile]
27 | 0.49 nM | CC[C@H](C)Oc1cc2c(-c3ccc(F)c4[nH]ncc34)c(N)c(=O)[nH]c2c2nccnc12 [Compound G13, 8-Amino-5-[(2S)-butan-2-yl]oxy-7-(7-fluoro-1H-indazol-4-yl)-10H-pyrido[2,3-f]quinoxalin-9-one]
28 | 0.69 nM | CC[C@@H](C)Oc1cc2c(-c3ccc(F)c4[nH]ncc34)c(N)c(=O)[nH]c2c2nccnc12 [Compound G14, 8-Amino-5-[(2R)-butan-2-yl]oxy-7-(7-fluoro-1H-indazol-4-yl)-10H-pyrido[2,3-f]quinoxalin-9-one]
29 | 1.6 nM | CC(C)Oc1cc2c(-c3ccc(F)c4[nH]ncc34)c(N)c(=O)[nH]c2c2nccnc12 [Compound G15, 8-Amino-7-(7-fluoro-1H-indazol-4-yl)-5-propan-2-yloxy-10H-pyrido[2,3-f]quinoxalin-9-one]
30 | 0.85 nM | Nc1c(-c2ccc(F)c3[nH]ncc23)c2cc(O[C@H]3C[C@@H](F)C3)c3nccnc3c2[nH]c1=O [Compound G17, 8-Amino-5-((1s,3s)-3-fluorocyclobutyl)oxy-7-(7-fluoro-1H-indazol-4-yl)-10H-pyrido[2,3-f]quinoxalin-9-one]
31 | 0.79 nM | Nc1c(-c2ccc(F)c3[nH]ncc23)c2cc(OCCC(F)F)c3nccnc3c2[nH]c1=O [Compound G18, 8-Amino-5-(3,3-difluoropropoxy)-7-(7-fluoro-1H-indazol-4-yl)-10H-pyrido[2,3-f]quinoxalin-9-one]
32 | 7.3 nM | Nc1c(-c2ccc(F)c3[nH]ncc23)c2cc(Br)c3cncnc3c2[nH]c1=O [Compound J1, 8-Amino-5-bromo-7-(7-fluoro-1H-indazol-4-yl)-10H-pyrido[3,2-h]quinazolin-9-one]
33 | 3.1 nM | Cc1cc2c(-c3ccc(F)c4[nH]ncc34)c(N)c(=O)[nH]c2c2ncncc12 [Compound J2, 8-Amino-7-(7-fluoro-1H-indazol-4-yl)-5-methyl-10H-pyrido[3,2-h]quinazolin-9-one]
34 | 1.7 nM | Nc1c(-c2ccc(F)c3[nH]ncc23)c2cc(Br)c3ncsc3c2[nH]c1=O [Compound K1, 7-Amino-4-bromo-6-(7-fluoro-1H-indazol-4-yl)-9H-[1,3]thiazolo[4,5-h]quinolin-8-one]
35 | 1.2 nM | Cc1cc2c(-c3ccc(F)c4[nH]ncc34)c(N)c(=O)[nH]c2c2scnc12 [Compound K2, 7-Amino-6-(7-fluoro-1H-indazol-4-yl)-4-methyl-9H-[1,3]thiazolo[4,5-h]quinolin-8-one]
36 | 10 nM | Cn1cnc2c3[nH]c(=O)c(N)c(-c4ccc(F)c5[nH]ncc45)c3cc(Br)c21 [Compound M1, 7-Amino-4-bromo-6-(7-fluoro-1H-indazol-4-yl)-3-methyl-9H-imidazo[4,5-h]quinolin-8-one]
37 | 14 nM | Cc1cc2c(-c3ccc(F)c4[nH]ncc34)c(N)c(=O)[nH]c2c2ncn(C)c12 [Compound M2, 7-Amino-6-(7-fluoro-1H-indazol-4-yl)-3,4-dimethyl-9H-imidazo[4,5-h]quinolin-8-one]
38 | 5.3 nM | Nc1c(-c2ccc(F)c3[nH]ncc23)c2cc(Br)c3scnc3c2[nH]c1=O [Compound N1, 7-Amino-4-bromo-6-(7-fluoro-1H-indazol-4-yl)-9H-[1,3]thiazolo[5,4-h]quinolin-8-one]
39 | 6.1 nM | CCOc1cc2c(-c3ccc(F)c4[nH]ncc34)c(N)c(=O)[nH]c2c2ccc(OC)nc12 [Compound T3, 3-Amino-6-ethoxy-4-(7-fluoro-1H-indazol-4-yl)-8-methoxy-1H-1,7-phenanthrolin-2-one]
